Molecular target: T1, bromodomain-containing protein 4 (BRD4) (Homo sapiens, UniProt O60885)
T1 construct: VCaP cells were chased from ATCC and cultured in Dulbecco's Modified Eagle's Medium; host or cells: VCaP
Assay: BRD4 Western blot (degradation)
Type: cell-based
Conditions: at 1 μM; VCaP cells, 16 h
Experimental: The following biological assays were performed to evaluate the protein degradation in various cell types using representative compounds disclosed. The degradation of the following proteins were evaluated: bromodomain-containing protein 4 (BRD4), androgen receptor (AR), c-Myc, c-Jun N-terminal kinases (JNK), and enhancer of zeste homolog 2 (EZH2).
VCaP cells were chased from ATCC and cultured in Dulbecco's Modified Eagle's Medium (ATCC), supplemented with 10% FBS (ATCC) and Penicillin/Streptomycin (Life Technologies). DMSO control and compound treatments (0.03 μM to 1 μM) were performed in 12-well plates for 16 h. cells were harvested, and lysed in RIPA buffer (50 mM Tris pH8, 150 mM NaCl, 1% Tx-100, 0.1% SDS, 0.5% sodium deoxycholate) supplemented with protease and phosphatase inhibitors. Lysates were clarified at 16,000 g for 10 minutes, and protein concentration was determined. Equal amount of protein (20 μg) was subjected to SDS-PAGE analysis and followed by immunoblotting according to standard protocols. The antibodies used were BRD4 (Cell signaling #13440), and Actin (Sigma #5441). Detection reagents were Clarity Western ELC substrate (Bio-rad #170-5060).

Degradation activity BRD4 | SMILES
B (25 to 50% degradation at 1 μM) | Cc1sc2c(c1C)C(c1ccc(Cl)cc1)=N[C@@H](CC(=O)NCCOCCOCCOCCOCCOCCNC(=O)C1NC(CC(C)(C)C)C(C#N)(c3ccc(Cl)cc3F)C1c1cccc(Cl)c1F)c1nnc(C)n1-2 (stereo partly drawn) [Compound A1283, N-(17-{[3-(3-chloro-2-fluorophenyl)-4-(4-chloro-2-fluorophenyl)-4-cyano-5-(2,2-dimethylpropyl)pyrrolidin-2-yl]formamido}-3,6,9,12,15-pentaoxaheptadecan-1-yl)-2-[(9S)-7-(4-chlorophenyl)-4,5,13-trimethyl-3-thia-1,8,11,12-tetraazatricyclo-[8.3.0.0^2,^6]trideea-2(6),4,7,10,12-pentaen-9-yl]acetamide]
B (25 to 50% degradation at 1 μM) | Cc1sc2c(c1C)C(c1ccc(Cl)cc1)=N[C@@H](CC(=O)NCCOCCOCCOCCNC(=O)C1N[C@@H](CC(C)(C)C)[C@](C#N)(c3ccc(Cl)cc3F)[C@H]1c1cccc(Cl)c1F)c1nnc(C)n1-2 (stereo partly drawn) [Compound A1306, N-(2-{2-[2-(2-{[3-(3-chloro-2-fluorophenyl)-4-(4-chloro-2-fluorophenyl)-4-cyano-5-(2,2-dimethylpropyl)pyrrolidin-2-yl]formamido}ethoxy)ethoxy]ethoxy}ethyl)-2-[(9S)-7-(4-chlorophenyl)-4,5,13-trimethyl-3-thia-1,8,11,12-tetraazatricyclo[8.3.0.0^2,^6]trideca-2(6),4,7,10,12-pentaen-9-yl]acetamide]
C (larger than 50% degradation at 1 μM) | Cc1sc2c(c1C)C(c1ccc(Cl)cc1)=N[C@@H](CC(=O)NCCOCCOCCOCCOCCNC(=O)C1N[C@@H](CC(C)(C)C)[C@](C#N)(c3ccc(Cl)cc3F)[C@H]1c1cccc(Cl)c1F)c1nnc(C)n1-2 (stereo partly drawn) [Compound A1307, N-(14-{[3-(3-chloro-2-fluorophenyl)-4-(4-chloro-2-fluorophenyl)-4-cyano-5-(2,2-dimethylpropyl)pyrrolidin-2-yl]formamido}-3,6,9,12-tetraoxatetradecan-1-yl)-2-[(9S)-7-(4-chlorophenyl)-4,5,13-trimethyl-3-thia-1,8,11,12-tetraazatricyclo-[8.3.0.0^2,^6]trideca-2(6),4,7,10,12-pentaen-9-yl]acetamide]
B (25 to 50% degradation at 1 μM) | COc1cc(C(=O)NCCOCCOCCOCCNC(=O)C[C@@H]2N=C(c3ccc(Cl)cc3)c3c(sc(C)c3C)-n3c(C)nnc32)ccc1NC(=O)C1N[C@@H](CC(C)(C)C)[C@](C#N)(c2ccc(Cl)cc2F)[C@H]1c1cccc(Cl)c1F (stereo partly drawn) [Compound A1829, 3-(3-chloro-2-fluorophenyl)-4-(4-chloro-2-fluorophenyl)-N-{4-[(2-{2-[2-(2-{2-[(9S)-7-(4-chlorophenyl)-4,5,13-trimethyl-3-thia-1,8,11,12-tetraazatricyclo[8.3.0.0^2,^6]trideca-2(6),4,7,10,12-pentaen-9-yl]acetamido}ethoxy)ethoxy]ethoxy}ethyl)carbamoyl]-2-methoxyphenyl}-4-cyano-5-(2,2-dimethylpropyl)pyrrolidine-2-carboxamide]
B (25 to 50% degradation at 1 μM) | COc1cc(C(=O)NCCOCCOCCNC(=O)C[C@@H]2N=C(c3ccc(Cl)cc3)c3c(sc(C)c3C)-n3c(C)nnc32)ccc1NC(=O)C1N[C@@H](CC(C)(C)C)[C@](C#N)(c2ccc(Cl)cc2F)[C@H]1c1cccc(Cl)c1F (stereo partly drawn) [Compound A1863, 3-(3-chloro-2-fluorophenyl)-4-(4-chloro-2-fluorophenyl)-N-[4-({2-[2-(2-{2-[(9S)-7-(4-chlorophenyl)-4,5,13-trimethyl-3-thia-1,8,11,12-tetraazatricyclo-[8.3.0.0^2,^6]trideca-2(6),4,7,10,12-pentaen-9-yl]acetamido}ethoxy)ethoxy]-ethyl}carbamoyl)-2-methoxyphenyl]-4-cyano-5-(2,2-dimethylpropyl)pyrrolidine-2-carboxamide]
A (0 to 25% degradation at 1 μM) | COc1cc(C(=O)NCCOCCOCCNC(=O)C[C@@H]2N=C(c3ccc(Cl)cc3)c3c(sc(C)c3C)-n3c(C)nnc32)ccc1NC(=O)[C@H]1N[C@H](CC(C)(C)C)[C@@](C#N)(c2ccc(Cl)cc2F)[C@@H]1c1cccc(Cl)c1F [Compound A1865, (2S,3R,4S,5R)-3-(3-chloro-2-fluorophenyl)-4-(4-chloro-2-fluorophenyl)-N-[4-({2-[2-(2-{2-[(9S)-7-(4-chlorophenyl)-4,5,13-trimethyl-3-thia-1,8,11,12-tetraazatricyclo-[8.3.0.0^2,^6]trideca-2(6),4,7,10,12-pentaen-9-yl]acetamido}ethoxy)ethoxy]ethyl}-carbamoyl)-2-methoxyphenyl]-4-cyano-5-(2,2-dimethylpropyl)pyrrolidine-2-carboxamide]
B (25 to 50% degradation at 1 μM) | COc1cc(C(=O)NCCOCCOCCOCCNC(=O)C[C@@H]2N=C(c3ccc(Cl)cc3)c3c(sc(C)c3C)-n3c(C)nnc32)ccc1NC(=O)[C@@H]1N[C@@H](CC(C)(C)C)[C@](C#N)(c2ccc(Cl)cc2F)[C@H]1c1cccc(Cl)c1F [Compound A1874, (2R,3S,4R,5S)-3-(3-chloro-2-fluorophenyl)-4-(4-chloro-2-fluorophenyl)-N-{4-[(2-{2-[2-(2-{2-[(9S)-7-(4-chlorophenyl)-4,5,13-trimethyl-3-thia-1,8,11,12-tetraazatricyclo[8.3.0.0^2,^6]trideca-2(6),4,7,10,12-pentaen-9-yl]acetamido}ethoxy)ethoxy]ethoxy}ethyl)carbamoyl]-2-methoxyphenyl}-4-cyano-5-(2,2-dimethylpropyl)pyrrolidine-2-carboxamide]
A (0 to 25% degradation at 1 μM) | COc1cc(C(=O)NCCOCCOCCOCCNC(=O)C[C@@H]2N=C(c3ccc(Cl)cc3)c3c(sc(C)c3C)-n3c(C)nnc32)ccc1NC(=O)[C@H]1N[C@H](CC(C)(C)C)[C@@](C#N)(c2ccc(Cl)cc2F)[C@@H]1c1cccc(Cl)c1F [Compound A1875, (2S,3R,4S,5R)-3-(3-chloro-2-fluorophenyl)-4-(4-chloro-2-fluorophenyl)-N-{4-[(2-{2-[2-(2-{2-[(9S)-7-(4-chlorophenyl)-4,5,13-trimethyl-3-thia-1,8,11,12-tetraazatricyclo[8.3.0.0^2,^6]trideca-2(6),4,7,10,12-pentaen-9-yl]acetamido}ethoxy)ethoxy]ethoxy}ethyl)carbamoyl]-2-methoxyphenyl}-4-cyano-5-(2,2-dimethylpropyl)pyrrolidine-2-carboxamide]
C (larger than 50% degradation at 1 μM) | COc1cc(C(=O)NCCOCCOCCOCCOCCNC(=O)C[C@@H]2N=C(c3ccc(Cl)cc3)c3c(sc(C)c3C)-n3c(C)nnc32)ccc1NC(=O)C1N[C@@H](CC(C)(C)C)[C@](C#N)(c2ccc(Cl)cc2F)[C@H]1c1cccc(Cl)c1F (stereo partly drawn) [Compound A1876, 3-(3-chloro-2-fluorophenyl)-4-(4-chloro-2-fluorophenyl)-N-{4-[(14-{2-[(9S)-7-(4-chlorophenyl)-4,5,13-trimethyl-3-thia-1,8,11,12-tetraazatricyclo[8.3.0.0^2,^6]-trideca-2(6),4,7,10,12-pentaen-9-yl]acetamido}-3,6,9,12-tetraoxatetradecan-1-yl)carbamoyl]-2-methoxyphenyl}-4-cyano-5-(2,2-dimethylpropyl)pyrrolidine-2-carboxamide]

From patent US12577255B2, “MDM2-based modulators of proteolysis and associated methods of use” (Arvinas Operations, Inc., priority 2015, dated 2026)
